Experimental data as given in patent US20100249018A1, “COMPOSITION AND METHOD FOR PREVENTING AND TREATING IMMUNE-RELATED DISORDER” (priority 2007, published 2010).
Square brackets hold non-standard residues; d marks the D form. Ends that are not written are not given here. * marks the point of attachment. Boc = CC(C)(C)OC(=O)*; For = O=C*

How the values were obtained:
CLP mice = assay: Survival in CLP (cecal ligation and puncture) sepsis mouse model; type: in vivo; conditions: for therapeutic effect of FPR ligands and scrambled peptide / therapeutic effect of WKYMVm analogs on experimental sepsis: 4 mg/kg subcutaneous four times at 2, 14, 26, 38 h post-CLP; for therapeutic effect of FPR ligands and scrambled peptide: FIG. 1g; for reversal of the therapeutic effects of WKYMVm by antagonist pre-treatment: antagonist 4 mg/kg subcutaneous 2 h before CLP and 2 h before each WKYMVm (4 mg/kg) treatment, FIG. 1d; for therapeutic effect of WKYMVm analogs on experimental sepsis: ICR mice, survival up to 10 days, FIG. 1h
Description: Male WT ICR mice and IL-12R 2-, IFN-γ-deficient, and WT C57BL/6 mice (kindly donated from Y. C. Sung, POSTECH, Republic of Korea) were used for experimental sepsis model, as previously described (Yan, J. J., Nat. Med. 10:161-167, 2004). All experiments involving animals adhered to the guidelines and received the approval of the Institutional Review Committee for Animal Care and Use at Dong-A University. For CLP, mice were anesthetized with pentothal sodium (50 mg/kg, intraperitoneal) and a small abdominal midline incision was made to expose the cecum. The cecum was then ligated below the ileocecal valve, punctured twice through both surfaces (or once for the measurement of cytokine production) using a 22-gauge needle and the abdomen was closed. Sham CLP mice were subjected to the same procedure, but without ligation and puncture of the cecum. Survival was monitored once daily for 10 days.
To investigate whether WKYMVm has a therapeutic effect on experimental sepsis, CLP was performed on albino ICR (Institute of Cancer Research) mice, and their survival was monitored for up to 10 days. […] Various doses of WKYMVm were injected subcutaneously four times into CLP mice at 2, 14, 26, and 38 h post-CLP.
To examine the effect of WKYMVm treatment, mice were injected subcutaneously with various doses of the peptide or with PBS as a negative control beginning 2 h after CLP. […] Various doses of WKYMVm were injected subcutaneously four times into CLP mice at […] post-CLP.
CLP mice were given zero, one, two, three, four, or five injections of WKYMVm (4 mg/kg, subcutaneous).
To evaluate the roles of FPR1 and FPR2, an FPR1 antagonist [N-t-butoxycarbonyl-Phe-Leu-Phe-Leu-Phe (Boc-PLPLP) (SEQ ID NO:12)] (La, M., et al., FASEB J. 15:2247-2256) and an FPR2 antagonist [Trp-Arg-Trp-Trp-Trp-Trp; WRWWWW (WRW^4) (SEQ ID NO:13)] (Bae, Y. S et al., J. Immunol. 173:607-614.) were administered prior to WKYMVm treatment in CLP mice. […] Boc-PLPLP (4 mg/kg), WRW^4 (4 mg/kg), or Boc-PLPLP (4 mg/kg)+WRW^4 (4 mg/kg) was injected subcutaneously 2 h before CLP. After CLP, Boc-PLPLP (4 mg/kg) or WRW^4 (4 mg/kg) was injected subcutaneously four times at 12-h intervals 2 h before WKYMVm treatment (4 mg/kg, subcutaneous).
Statistical analysis. Survival data were analyzed using the log-rank test. All other data were evaluated using ANOVA. The Bonferroni test was used for post hoc comparisons and statistical significance was set a priori at P<0.05.
FPR-family agonists (WKYMVm (SEQ ID NO:1), WKYMVM(SEQ ID NO:14), fMLF(SEQ ID NO:15) and MMK-1 (SEQ ID NO:16)) or scrambled peptide (VWMYmK: SEQ ID NO: 17) (4 mg/kg, respectively) were injected subcutaneously four times to CLP mice at 2, 14, 26, and 38 h post-CLP.
To investigate whether the analogs of WKYMVm(SEQ ID NO:1), WRYMVm(SEQ ID NO: 2), WKWMVm(SEQ ID NO: 3), WKRMVm(SEQ ID NO: 4), WKFMVm(SEQ ID NO: 5), WHYMVm(SEQ ID NO: 6), WKYMYm(SEQ ID NO: 7), WKYMFm(SEQ ID NO: 8), WKYMWm(SEQ ID NO: 9), WKYMVV(SEQ ID NO: 10) and WKEMVm(SEQ ID NO: 11) have therapeutic effects on experimental sepsis, CLP was performed on albino ICR (Institute of Cancer Research) mice, and their survival was monitored for up to 10 days. […] 4 mg/kg of WKYMVm or each analog of WKYMVm was injected subcutaneously four times into CLP mice at 2, 14, 26, and 38 h post-CLP (FIG. 1h).
To investigate the role of Th1 cytokines (IL-12 and IFN-γ) on WKYMVm-induced survival effect after sepsis, the CLP model was applied to IL-12Rβ2- and IFN-γ-deficient mice (C57BL/6 background). […] WT C57BL/6 or IL-12Rβ2-deficient mice were subcutaneously injected with WKYMVm (4 mg/kg) or PBS four times to CLP mice 2, 14, 26, and 38 h post-CLP. In FIG. 5d, WT C57BL/6 or IFN-γ-deficient mice were subcutaneously injected with WKYMVm (4 mg/kg) or PBS four times to CLP mice 2, 14, 26, and 38 h post-CLP. Data are expressed as the mean±standard error. *P<0.05; **P<0.01 compared with vehicle (c, d). n=10-16 mice per group (c,d) […]

[1] = test system: splenocytes of Th1 mouse model; assay: Splenocyte proliferation assay, Th1 mouse model (OVA+LPS); type: in vivo; conditions: OVA+LPS immunized mice; 72 h incubation with OVA; compared to sham-treated mice; FIG. 4e
Description: To generate the Th1 and Th2 mouse models (FIG. 4b), 6-week-old C57BL/6 WT mice were twice immunized intraperitoneally with 75 μg of OVA+10 μg of LPS or 2 mg of alum on days 0 and 7 and then challenged intraperitoneally with 50 μg of OVA on days 14, 15, and 16. Isolated splenocytes were subjected to a cell proliferation assay with and without OVA incubation. Briefly, splenocytes were harvested in RPMI 1640 media and incubated (2×10^5 cells/well) in 96-well flat-bottom plates at 37° C. for 96 h in medium alone or with 5, 50 or 500 μg OVA/ml. The example measured cellular thymidine incorporation following a 72 h culture period with 1 μCi [^3H]thymidine.
Because IL-2 promotes T-cell proliferation (Benczik, M., et al., Immunol. Invest. 33:109-142), the effect of FPR activation by WKYMVm on Th1 and Th2 cell proliferation was evaluated using inert antigens. WKYMVm (4 mg/kg) was injected subcutaneously four times into CLP mice 2, 14, 26, and 38 h post-CLP. Separate groups of animals were given sham, CLP+PBS, or CLP+WKYMVm treatment. Data are expressed as the mean±standard error (n=8). *P<0.05; **P<0.01 compared with CLP+PBS. […]
Protocol for the Th1 and Th2 mice (FIG. 4d) was described below. […] Data are expressed as the mean±standard error (n=5 for e, f), and * indicates P<0.05 compared to OVA+PBS group; ** indicates P<0.05 versus the other groups. […]

[2] = test system: E. coli ingested by mouse neutrophils; assay: Neutrophil bactericidal activity in vitro; type: cell-based; conditions: antagonist 10 μM added 30 min prior to WKYMVm (100 nM); FIG. 3b
Description: To determine whether WKYMVm treatment increases bactericidal activity in vitro, mouse neutrophils were allowed to ingest E. coli for 1 h and were then stimulated with 0.1-1000 nM WKYMVm for 20 min. […] Adherent neutrophils were incubated with 10^6 opsonized E. coli for 1 h, and stimulated with vehicle (PBS) or WKYMVm (0.1, 1, 10, 100, and 1000 nM) for 1 h.
Because FPR1 and FPR2 are expressed in neutrophils (data not shown), this experiment investigated the roles of FPR1-1 and FPR2-mediated pathways in WKYMVm-induced bactericidal activity. […] Mouse neutrophils were isolated from peripheral blood using a Histopaque-1077 solution (Sigma) as described previously (Bae, Y. S., et al., J. Immunol. 171:6807-6813, 2003). Boc-PLPLP (10 μM), WRW^4 (10 μM), or Boc-PLPLP (10 μM)+WRW^4 (10 μM) was added 30 min prior to the addition of WKYMVm (100 nM). The number of viable bacteria in the neutrophils was then determined.
Neutrophil bactericidal activity was measured according to the method of Yan, J. J., et al., Nat. Med. 10:161-167, 2004. […] After washing away the unengulfed E. coli, the number of viable bacteria in the neutrophils was determined before and after incubation with several concentrations of WKYMVm or vehicle for 1 h. The percentage of bacteria killed was calculated as 100×(1−number of CFU after WKYMVm stimulation/number of CFU before WKYMVm stimulation). […]

mouse neutrophils = assay: H2O2 generation in mouse neutrophils in vitro; type: cell-based; conditions: antagonist 10 μM prior to WKYMVm (100 nM); FIG. 3d
Description: Because the bactericidal effect of phagocytes is related with H2O2 production (Hampton, M. B., et al., Blood. 92:3007-3017), the effect of WKYMVm on H2O2 generation in mouse neutrophils was evaluated. […] Mouse neutrophils were stimulated with vehicle (PBS) or WKYMVm (1-1000 nM) for 15 min. Neutrophils isolated from sham, CLP−, or CLP+WKYMVm-treated mice were stimulated with 100 nM PMA for 1 h. Freshly isolated neutrophils from normal mice were stimulated with various concentrations of WKYMVm for 10 min in the presence of cytochalasin B (5 μM).
To investigate the role of FPR1 and FPR2, neutrophils were preincubated with Boc-PLPLP (10 μM), WRW^4 (10 μM), or vehicle (DMSO) for 30 minutes prior to adding WKYMVm (100 nM) for 10 min. H2O2 in the supernatant was measured using an H2O2 assay kit (Molecular Probes).
Boc-PLPLP (10 μM), WRW^4 (10 μM), or Boc-PLPLP (10 μM)+WRW^4 (10 μM) was added […] prior to the addition of WKYMVm (100 nM).

Substance: LESIFRSLLFRVM (MMK-1 peptide) [FPR-family agonist]
- therapeutic effect of FPR ligands and scrambled peptide (CLP mice): lower than that of WKYMVm

Substance: N-formyl-Met-Leu-Phe (For-Met-Leu-Phe) [fMLF, FPR-family agonist]
- therapeutic effect of FPR ligands and scrambled peptide (CLP mice): lower than that of WKYMVm

Substance: N-t-butoxycarbonyl-Phe-Leu-Phe-Leu-Phe (Boc-FLFLF) [Boc-PLPLP, FPR1 antagonist]
- splenocyte proliferation, Th1 mouse model [1]: inhibited
- reversal of the therapeutic effects of WKYMVm by antagonist pre-treatment (CLP mice): only partly reversed
- WKYMVm-induced bactericidal activity after antagonist pre-treatment [2]: significantly inhibited bactericidal activity
- reversal of WKYMVm-induced H2O2 generation by antagonist pre-treatment (mouse neutrophils): partly reversed

Substance: Val-Trp-Met-Tyr-D-Met-Lys (VWMY[dM]K) [VWMYmK]
- therapeutic effect of FPR ligands and scrambled peptide (CLP mice): no therapeutic effect

Substance: WHYMVm: analog of WKYMVm (WHYMV[dM])
- therapeutic effect of WKYMVm analogs on experimental sepsis (CLP mice): no therapeutic effects

Substance: WKEMVm: analog of WKYMVm (WKEMV[dM])
- therapeutic effect of WKYMVm analogs on experimental sepsis (CLP mice): no therapeutic effects

Substance: WKFMVm: analog of WKYMVm (WKFMV[dM])
- therapeutic effect of WKYMVm analogs on experimental sepsis (CLP mice): no therapeutic effects

Substance: WKRMVm: analog of WKYMVm (WKRMV[dM])
- therapeutic effect of WKYMVm analogs on experimental sepsis (CLP mice): no therapeutic effects

Substance: WKWMVm: analog of WKYMVm (WKWMV[dM])
- therapeutic effect of WKYMVm analogs on experimental sepsis (CLP mice): no therapeutic effects

Substance: WKYMFm: analog of WKYMVm (WKYMF[dM])
- therapeutic effect of WKYMVm analogs on experimental sepsis (CLP mice): no therapeutic effects

Substance: WKYMVV: analog of WKYMVm (WKYMVV)
- therapeutic effect of WKYMVm analogs on experimental sepsis (CLP mice): no therapeutic effects

Substance: WKYMWm: analog of WKYMVm (WKYMW[dM])
- therapeutic effect of WKYMVm analogs on experimental sepsis (CLP mice): no therapeutic effects

Substance: WKYMYm: analog of WKYMVm (WKYMY[dM])
- therapeutic effect of WKYMVm analogs on experimental sepsis (CLP mice): no therapeutic effects

Substance: WRWWWW [WRW^4]
- splenocyte proliferation, Th1 mouse model [1]: inhibited
- reversal of the therapeutic effects of WKYMVm by antagonist pre-treatment (CLP mice): completely reversed
- WKYMVm-induced bactericidal activity after antagonist pre-treatment [2]: significantly inhibited bactericidal activity
- reversal of WKYMVm-induced H2O2 generation by antagonist pre-treatment (mouse neutrophils): partly reversed

Substance: WRYMVm: analog of WKYMVm (WRYMV[dM])
- therapeutic effect of WKYMVm analogs on experimental sepsis (CLP mice): no therapeutic effects
